Where a name gives a salt, the structure may show the parent alone.
Molecular target: T1, NO synthase (Rattus norvegicus, UniProt P29476)
T1 construct: the supernatant was then removed by decantation and frozen in portions at −80° C; from tissue; host or cells: rat cerebellum, 20,000 g supernatant of homogenate
Experiment: HTS-NOS assay (NOS assay): conversion of radioactive arginine, cation-exchanger filter plate
Format: biochemical
Conditions: 10 μM
Summary of the method: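 Percent inhibition was derived by comparing remaining radioactive arginine with compound-free controls. Arginine retained on phosphate cation-exchanger filters was counted after citrulline washout, following a 5-60 min room-temperature (25 °C) reaction of labelled arginine, NADPH-containing medium and rat cerebellar homogenate supernatant.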

SMILES	HTS-NOS assay: % inhibition (10 μM) [%]
[C-]#[N+]CCCCCCNc1c(-c2ccc(-c3ccccc3Cl)o2)nc2cccc(C)n12 [Example 103, (6-{2-[5-(2-Chlorophenyl)-furan-2-yl]-5-methyl-imidazo[1,2-a]pyridin-3-ylamino)-hexyl)-methylidyne-ammonium]	50
[C-]#[N+]CCCCCCNc1c(-c2ccccc2Br)nc2cc(C)ccn12 [Example 137, {6-[2-(2-Bromo-phenyl)-7-methyl-imidazo[1,2-a]pyridin-3-ylamino]-hexyl}-methylidyne-ammonium]	52
CC(=O)OCc1ccc(-c2nc3cc(C)cc(C)n3c2N(C(C)=O)C2CCCCC2)o1 [Example 158, acetic acid 5-[3-(acetyl-cyclohexyl-amino)-5,7-dimethyl-imidazo[1,2-a]pyridin-2-yl]-furan-2-yl methyl ester]	54
[C-]#[N+]CCCCCCNc1c(-c2ccc(C)cc2)nc2cc(C)ccn12 [Example 50, Methylidyne-[6-(7-methyl-2-p-tolyl-imidazo[1,2-a]pyridin-3-ylamino)-hexyl]-ammonium]	78
[C-]#[N+]CCCCCCNc1c(-c2ccccc2C)nc2cc(C)ccn12 [Example 97, Methylidyne-[6-(7-methyl-2-o-tolyl-imidazo[1,2-a]pyridin-3-ylamino)-hexyl]-ammonium]	62

Same assay, conditions: read-out: HTS-NOS assay: % inhibition (10 μM)

inhibition at 10 µM [%]	SMILES
51	COC(=O)CN(C(C)=O)c1c(-c2ccccc2C)nc2ncccn12 [Example 285, [acetyl-(2-o-tolyl-imidazo[1,2-a]pyrimidin-3-yl)-amino]-acetic acid methyl ester]
68	COC(=O)CN(C(C)=O)c1c(C)nc2cc(C)ccn12 [Example 174, [acetyl-(2,7-dimethyl-imidazo[1,2-a]pyridin-3-yl)-amino]-acetic acid methyl ester]
67	CCCCNc1c(-c2cccc(OC)c2OC)nc2cc(C)cc(C)n12 [Example 49, Butyl-[2-(2,3-dimethoxy-phenyl)-5,7-dimethyl-imidazo[1,2-a]pyridin-3-yl]-amine]
56	COC(=O)CN(C(C)=O)c1c(C2CCCCC2)nc2cc(C)ccn12 [Example 257, [acetyl-(2-cyclohexyl-7-methyl-imidazo[1,2-a]pyridin-3-yl)-amino]-acetic acid methyl ester]
52	Cc1ccn2c(Nc3c(C)cccc3C)c(-c3ccc(CO)o3)nc2n1 [Example 132, {5-[3-(2,6-Dimethyl-phenylamino)-7-methyl-imidazo[1,2-a]pyrimidin-2-yl]-furan-2-yl}-methanol]
55	Cc1ccn2c(NC3CCCCC3)c(C)nc2c1 [Example 69, Cyclohexyl-(2,7-dimethyl-imidazo[1,2-a]-pyridin-3-yl)-amine]
64	CC(=O)N(c1c(-c2ccc(Cl)cc2Cl)nc2cccc(C)n12)C1CCCCC1 [Example 274, N-cyclohexyl-N-[2-(2,4-dichloro-phenyl)-5-methyl-imidazo[1,2-a]pyridin-3-yl]-acetamide]
59	CC(=O)N(c1c(-c2cc3ccccc3o2)nc2c(C)cccn12)C(C)(C)CC(C)(C)C [Example 286, N-(2-benzofuran-2-yl-8-methyl-imidazo[1,2-a]pyridin-3-yl)-N-(1,1,3,3-tetramethyl-butyl)-acetamide]
55	CC(=O)N(c1c(-c2cccc(Cl)c2Cl)nc2cc(C)cc(C)n12)C(C)(C)CC(C)(C)C [Example 193, N-[2-(2,3-dichloro-phenyl)-5,7-dimethyl-imidazo[1,2-a]pyridin-3-yl]-N-(1,1,3,3-tetramethyl-butyl)-acetamide]
58	COc1ccccc1-c1nc2cc(C)ccn2c1NC(C)(C)CC(C)(C)C [Example 101, [2-(2-Methoxy-phenyl)-7-methyl-imidazo[1,2-a]pyridin-3-yl]-(1,1,3,3-tetramethyl-butyl)-amine]
52	Cc1ccc2nc(-c3cccc(Cl)c3Cl)c(NC(C)(C)CC(C)(C)C)n2c1 [Example 112, [2-(2,3-Dichloro-phenyl)-6-methyl-imidazo[1,2-a]pyridin-3-yl]-(1,1,3,3-tetramethyl-butyl)-amine]
65	CC(=O)N(c1c(-c2cccs2)nc2cc(C)ccn12)C1CCCCC1 [Example 151, N-cyclohexyl-N-(7-methyl-2-thiophen-2-yl-imidazo[1,2-a]pyridin-3-yl)-acetamide]
69	Cc1cc(C)n2c(NC(C)(C)CC(C)(C)C)c(-c3ccc[nH]3)nc2c1 [Example 36, [5,7-Dimethyl-2-(1H-pyrrol-2-yl)-imidazo-[1,2-a]pyridin-3-yl]-(1,1,3,3-tetramethyl-butyl)-amine]
53	CC(=O)N(c1c(-c2ccc(F)cc2Cl)nc2ccccn12)C(C)(C)C [Example 291, N-tert-butyl-N-[2-(2-chloro-4-fluoro-phenyl)-imidazo[1,2-a]pyridin-3-yl]-acetamide]
68	CC(=O)N(c1c(-c2cccnc2)nc2cc(C)cc(C)n12)C(C)(C)CC(C)(C)C [Example 147, N-(5,7-dimethyl-2-pyridin-3-yl-imidazo[1,2-a]pyridin-3-yl)-N-(1,1,3,3-tetramethyl-butyl)-acetamide]
52	CC(=O)N(c1c(-c2ccc(C(=O)O)o2)nc2c(C)cccn12)C(C)(C)CC(C)(C)C [Example 230, 5-{3-[acetyl-(1,1,3,3-tetramethyl-butyl)-amino]-8-methyl-imidazo[1,2-a]pyridin-2-yl}-furan-2-carboxylic acid]

Molecular target: NOS (Rattus norvegicus, UniProt P29476)
Experiment: Citrulline assay (Bredt and Snyder)
Format: biochemical
Conditions: not given
Method: This assay was carried out as described by D. S. Bredt and S. H. Snyder (Proc. Natl. Acad. Sci. USA (1990), 87, 682-685).

IC50 [µM]	SMILES
9.2	Cc1cc(C)n2c(NC3CCCCC3)c(-c3ccncc3)nc2c1 [Example 295, Cyclohexyl-(5,7-dimethyl-2-pyridin-4-yl-imidazo[1,2-a]pyridin-3-yl)-amine; hydrochloride]
4.3	Cc1ccn2c(NC(C)(C)CC(C)(C)C)c(-c3ccccc3F)nc2c1 [Example 298, [2-(2-Fluorophenyl)-7-methyl-imidazo[1,2-a]pyridin-3-yl]-(1,1,3,3-tetramethyl-butyl)-amine; hydrochloride]
2.4	Cc1ccn2c(NC3CCCCC3)c(-c3ccccc3C(F)(F)F)nc2c1 [Example 292, Cyclohexyl-[7-methyl-2-(2-trifluorO-methyl-phenyl)-imidazo[1,2-a]pyridin-3-yl]-amine; hydrochloride]
2.5	Cc1cc(C)n2c(NC(C)(C)CC(C)(C)C)c(-c3ccco3)nc2c1 [Example 296, (2-Furan-2-yl-5,7-dimethyl-imidazo[1,2-a]-pyridin-3-yl)-(1,1,3,3-tetramethyl-butyl)-amine; hydrochloride]
